Experiment: method code SF-AS, from DOI: 10.1016/j.ejmech.2011.01.053, PMID: 21334792
Conditions: pH 7.4

Row | Structure (SMILES) | logD
1 | CC(C)(C)OC(=O)N1CCCC1C(=O)O/N=C1\c2ccccc2-c2c1c(-n1ccnc1)nc1ccc(Br)cc21 (stereo not drawn) | 1.28
2 | CC(=O)ON=C1c2ccccc2-c2c1c(C1C=CN=C1)nc1ccc(Br)cc21 (stereo not drawn) | 1.11
3 | CN(C)C(=O)ON=C1c2ccccc2-c2c1c(N1CCN(c3ccccn3)CC1)nc1ccc(Br)cc21 | 2.34
4 | O=C(C=Cc1ccco1)ON=C1C2=C(c3ccccc31)c1c(Br)cccc1NC2N1CCN(c2ccccn2)CC1 (stereo not drawn) | 1.43
5 | CC(C)(C)OC(=O)NC(Cc1cccc(F)c1)ON=C1c2ccccc2-c2c1c(N1CCN(c3ccccn3)CC1)nc1ccc(Br)cc21 (stereo not drawn) | 1.14
6 | CC1(OC(=O)CC(F)(F)F)c2ccccc2-c2c1c(-n1ccnc1)nc1ccc(Br)cc21 (stereo not drawn) | 1.83
7 | CC1(O)c2ccccc2-c2c1c(-n1ccnc1)nc1ccc(Br)cc21 (stereo not drawn) | 1.73
8 | CCCCC(=O)ON=C1c2ccccc2-c2c1c(C1C=CN=C1)nc1ccc(Br)cc21 (stereo not drawn) | 1.64
9 | ON=C1c2ccccc2-c2c1c(C1C=CN=C1)nc1ccc(Br)cc21 (stereo not drawn) | 0.23
10 | CCCC(=O)O/N=C1\c2ccccc2-c2c1c(-n1ccnc1)nc1ccc(Br)cc21 | 1.17
11 | CCCCCC(=O)ON=C1c2ccccc2-c2c1c(C1C=CN=C1)nc1ccc(Br)cc21 (stereo not drawn) | 2.11
12 | CCCCCCC(=O)ON=C1c2ccccc2-c2c1c(C1C=CN=C1)nc1ccc(Br)cc21 (stereo not drawn) | 1.51

Results, then the molecule that gave them:

Row | logD | Structure (SMILES)
13 | 2.65 | CCC(=O)ON=C1c2ccccc2-c2c1c(N1CCN(c3ccccn3)CC1)nc1ccc(Br)cc21
14 | 1.5 | CC(C)(C)C(=O)NC(C(=O)ON=C1c2ccccc2-c2c1c(N1CCN(c3ccccn3)CC1)nc1ccc(Br)cc21)C(C)(C)C (stereo not drawn)
15 | 1.47 | O=C(CCCCBr)ON=C1c2ccccc2-c2c1c(N1CCN(c3ccccn3)CC1)nc1ccc(Br)cc21
16 | 0.7 | CC(C)(C)OC(=O)NCC(=O)ON=C1c2ccccc2-c2c1c(N1CCN(c3ccccn3)CC1)nc1cccc(Br)c21
17 | 1.18 | CC(=O)NCC(=O)ON=C1c2ccccc2-c2c1c(N1CCN(c3ccccn3)CC1)nc1ccc(Br)cc21
18 | 2.06 | CCCCCC(=O)ON=C1c2ccccc2-c2c1c(N1CCN(c3ccc[nH]3)CC1)nc1ccc(Br)cc21
